Measurements: the supplement of paper PMC12406974

Columns and labels:
Experiment in all cases: maximum observed lethal fraction; higher = more cell death
U2OS BCL2L12-KO = system: U2OS BCL2L12-KO
U2OS PTBP1-KO = system: U2OS PTBP1-KO
U2OS BAX/BAK1 DKO = system: U2OS BAX/BAK1 DKO
U2OS = system: U2OS
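Also: FLICK assay: SYTOX Green fluorescence of dead cells tracked over time after drugging in 96-well plates, with total cell counts taken from Triton X-100 lysed wells.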

| Structure (SMILES) | maximum observed lethal fraction (U2OS BCL2L12-KO; 0.01 µM) | maximum observed lethal fraction (U2OS BCL2L12-KO; 0.0316 µM) | maximum observed lethal fraction (U2OS BCL2L12-KO; 0.1 µM) | maximum observed lethal fraction (U2OS BCL2L12-KO; 0.316 µM) | maximum observed lethal fraction (U2OS BCL2L12-KO; 1 µM) | maximum observed lethal fraction (U2OS BCL2L12-KO; 3.16 µM) | maximum observed lethal fraction (U2OS BCL2L12-KO; 10 µM) | maximum observed lethal fraction (U2OS PTBP1-KO; 0.01 µM) | maximum observed lethal fraction (U2OS PTBP1-KO; 0.0316 µM) | maximum observed lethal fraction (U2OS PTBP1-KO; 0.1 µM) | maximum observed lethal fraction (U2OS PTBP1-KO; 0.316 µM) | maximum observed lethal fraction (U2OS PTBP1-KO; 1 µM) | maximum observed lethal fraction (U2OS PTBP1-KO; 3.16 µM) | maximum observed lethal fraction (U2OS PTBP1-KO; 10 µM) | maximum observed lethal fraction (U2OS BAX/BAK1 DKO; 0.01 µM) | maximum observed lethal fraction (U2OS BAX/BAK1 DKO; 0.0316 µM) | maximum observed lethal fraction (U2OS BAX/BAK1 DKO; 0.1 µM) | maximum observed lethal fraction (U2OS BAX/BAK1 DKO; 0.316 µM) | maximum observed lethal fraction (U2OS BAX/BAK1 DKO; 1 µM) | maximum observed lethal fraction (U2OS BAX/BAK1 DKO; 3.16 µM) | maximum observed lethal fraction (U2OS BAX/BAK1 DKO; 10 µM) | maximum observed lethal fraction (U2OS; 0.01 µM) | maximum observed lethal fraction (U2OS; 0.0316 µM) | maximum observed lethal fraction (U2OS; 0.1 µM) | maximum observed lethal fraction (U2OS; 0.316 µM) | maximum observed lethal fraction (U2OS; 1 µM) | maximum observed lethal fraction (U2OS; 3.16 µM) | maximum observed lethal fraction (U2OS; 10 µM) | maximum observed lethal fraction (U2OS BCL2L12-KO; 31.6 µM) | maximum observed lethal fraction (U2OS BCL2L12-KO; 100 µM) | maximum observed lethal fraction (U2OS PTBP1-KO; 31.6 µM) | maximum observed lethal fraction (U2OS PTBP1-KO; 100 µM) | maximum observed lethal fraction (U2OS BAX/BAK1 DKO; 31.6 µM) | maximum observed lethal fraction (U2OS BAX/BAK1 DKO; 100 µM) | maximum observed lethal fraction (U2OS; 31.6 µM) | maximum observed lethal fraction (U2OS; 100 µM) |
| --- | --- | --- | --- | --- | --- | --- | --- | --- | --- | --- | --- | --- | --- | --- | --- | --- | --- | --- | --- | --- | --- | --- | --- | --- | --- | --- | --- | --- | --- | --- | --- | --- | --- | --- | --- | --- |
| CO[C@H]1C[C@@H]2CC[C@@H](C)[C@@](O)(O2)C(=O)C(=O)N2CCCC[C@H]2C(=O)O[C@H]([C@H](C)C[C@@H]2CC[C@@H](O)[C@H](OC)C2)CC(=O)[C@H](C)/C=C(\C)[C@@H](O)[C@@H](OC)C(=O)[C@H](C)C[C@H](C)/C=C/C=C/C=C/1C [Rapamycin] | 0.0761 | 0.0732 | 0.0721 | 0.0738 | 0.0786 | 0.084 | 0.0965 | 0.0742 | 0.0686 | 0.0757 | 0.0711 | 0.0784 | 0.0724 | 0.0767 | 0.0624 | 0.0616 | 0.0646 | 0.0631 | 0.0613 | 0.0695 | 0.0695 | 0.062 | 0.0603 | 0.0606 | 0.0645 | 0.061 | 0.0607 | 0.0674 |  |  |  |  |  |  |  |  |
| CN(C)C(=O)c1cc2cnc(Nc3ccc(N4CCNCC4)cn3)nc2n1C1CCCC1 [Ribociclib] | 0.0551 | 0.0572 | 0.0587 | 0.0607 | 0.0645 | 0.07 | 0.0804 | 0.0584 | 0.0595 | 0.064 | 0.0704 | 0.0696 | 0.0751 | 0.0787 | 0.0572 | 0.057 | 0.0609 | 0.0673 | 0.0658 | 0.0721 | 0.082 | 0.0675 | 0.0565 | 0.0602 | 0.0591 | 0.0629 | 0.0661 | 0.077 |  |  |  |  |  |  |  |  |
| CNCc1ccc(-c2[nH]c3cc(F)cc4c3c2CCNC4=O)cc1 [Rucaparib] |  |  | 0.065 | 0.0637 | 0.0652 | 0.0687 | 0.0753 |  |  | 0.0657 | 0.065 | 0.0647 | 0.0685 | 0.0766 |  |  | 0.0512 | 0.0548 | 0.0528 | 0.06 | 0.0652 |  |  | 0.0508 | 0.0538 | 0.0545 | 0.057 | 0.0608 | 0.195 | 0.886 | 0.18 | 0.683 | 0.0926 | 0.178 | 0.278 | 0.81 |
| Cc1cc(Nc2ccc(NC(=O)c3ccc(Nc4ccnc5ccccc45)cc3)cc2)nc(N)n1 [SGI-1027] |  | 0.0572 | 0.0566 | 0.0604 | 0.902 | 1 | 0.984 |  | 0.0577 | 0.0687 | 0.0612 | 0.208 | 0.977 | 1 |  | 0.0581 | 0.0592 | 0.0626 | 0.104 | 0.964 | 1 |  | 0.0565 | 0.0566 | 0.0644 | 0.414 | 0.997 | 1 | 0.888 |  | 0.886 |  | 0.883 |  | 0.875 |  |
| CN[C@@H]1C[C@H]2O[C@@](C)([C@@H]1OC)n1c3ccccc3c3c4c(c5c6ccccc6n2c5c31)C(=O)NC4 [Staurosporine] | 0.437 | 0.593 | 0.936 | 0.877 | 0.736 | 0.725 | 0.894 | 0.476 | 0.77 | 0.93 | 0.878 | 0.737 | 0.781 | 0.864 | 0.104 | 0.113 | 0.125 | 0.121 | 0.125 | 0.136 | 0.254 | 0.508 | 0.709 | 0.903 | 0.819 | 0.71 | 0.642 | 0.811 |  |  |  |  |  |  |  |  |
| CN(C)C/C=C/C(=O)Nc1ccc(C(=O)Nc2cccc(Nc3ncc(Cl)c(-c4c[nH]c5ccccc45)n3)c2)cc1 [THZ1] | 0.0888 | 0.274 | 0.475 | 0.467 | 0.582 | 0.742 | 0.761 | 0.101 | 0.239 | 0.388 | 0.33 | 0.486 | 0.627 | 0.707 | 0.0742 | 0.0981 | 0.0902 | 0.1 | 0.109 | 0.157 | 0.12 | 0.0758 | 0.274 | 0.452 | 0.441 | 0.57 | 0.678 | 0.76 |  |  |  |  |  |  |  |  |
| CN(C)C/C=C/C(=O)Nc1ccc(C(=O)N2CCC[C@@H](Nc3ncc(Cl)c(-c4c[nH]c5ccccc45)n3)C2)cc1 [THZ531] | 0.0636 | 0.0649 | 0.0776 | 0.465 | 0.359 | 0.489 | 0.903 | 0.0612 | 0.0612 | 0.0684 | 0.17 | 0.346 | 0.314 | 0.836 | 0.061 | 0.0622 | 0.0635 | 0.0888 | 0.105 | 0.0957 | 0.188 | 0.049 | 0.0521 | 0.0575 | 0.271 | 0.325 | 0.46 | 0.923 |  |  |  |  |  |  |  |  |
| COc1cc([C@@H]2c3cc4c(cc3[C@@H](O[C@@H]3O[C@@H]5CO[C@@H](c6cccs6)O[C@H]5[C@H](O)[C@H]3O)[C@H]3COC(=O)[C@H]23)OCO4)cc(OC)c1O [Teniposide] |  | 0.0736 | 0.0745 | 0.0806 | 0.355 | 0.728 | 0.801 |  | 0.079 | 0.0821 | 0.0892 | 0.383 | 0.686 | 0.763 |  | 0.0788 | 0.0806 | 0.0807 | 0.0902 | 0.106 | 0.205 |  | 0.0732 | 0.0749 | 0.0834 | 0.373 | 0.714 | 0.804 | 0.968 |  | 0.815 |  | 0.299 |  | 0.867 |  |
